Measurements reported in PMC7586344, “Discovery of Novel pERK1/2- or β-Arrestin-Preferring 5-HT1A Receptor-Biased Agonists: Diversified Therapeutic-like versus Side Effect Profile” (Journal of Medicinal Chemistry, 2020).

Key:
[1] = Preliminary metabolic stability in rat liver microsomes; assay type: in vitro ADME; conditions: pH 7.4, RLMs 1 mg/mL, 50 μM compound, 37 °C
HepG2 cells = test: Hepatotoxicity, HepG2 cell viability; assay type: cell-based, human; conditions: 72 h incubation
male Wistar rats [2] = test: Porsolt forced swimming test; assay type: in vivo; conditions: rat FST, 60 min before test, mean ± SEM
Protocol: The experiments were performed on male Wistar rats (170–200 g) obtained from an accredited animal facility at the Jagiellonian University Medical College, Krakow, Poland. […] Standard laboratory food (LSM-B) and filtered water were freely available. […] Each animal was assigned randomly to treatment groups and only used once (no repeated use of animals). All the experiments were performed by two observers unaware of the treatment applied between 9:00 and 14:00 on separate groups of animals. […] All efforts were made to minimize suffering and to reduce the number of animals used in the experiments and to use only the number of animals necessary to produce reliable scientific data. Each experimental group consisted of 6–8 animals. […] The examined compounds were administered orally 60 min before tests. In antagonism experiments, WAY100635 (Tocris, UK) was administered subcutaneously 75 min before testing. Control animals received vehicle (distilled water) according to the same schedule. […] On the following day (24 h later), the rats were re-placed in the cylinder after administration of test compounds and the total duration of immobility was recorded during the 5-min test period. […] Fresh water was used for each animal.

male Wistar rats [3] = test: Lower lip retraction; assay type: in vivo; conditions: rat; for LLR score: 50 min before test, score 0-10; for ability to induce lower lip retraction (LLR), in words: p.o.
Protocol: The experiments were performed on male Wistar rats (170–200 g) obtained from an accredited animal facility at the Jagiellonian University Medical College, Krakow, Poland. […] All efforts were made to minimize suffering and to reduce the number of animals used in the experiments and to use only the number of animals necessary to produce reliable scientific data. Each experimental group consisted of 6–8 animals.
The examined compounds were administered orally 60 min before tests. In antagonism experiments, WAY100635 (Tocris, UK) was administered subcutaneously 75 min before testing. Control animals received vehicle (distilled water) according to the same schedule.
Observations were made according to the method described by Kleven et al.([68]) Animals were observed individually during a 10 min period for 10 s of observation per animal. During each of these observation periods, the uninterrupted presence for at least 3 s (1) or absence (0) of LLR was recorded. This cycle was repeated 10 times over a 10 min period; thus, the incidence of a particular behavior could vary from 0 to 10.

[4] = In vitro rat plasma protein binding (ultrafiltration); assay type: in vitro ADME; conditions: rat serum; for fraction unbound at 30 min, 3 µg/mL / fraction unbound at 30 min, 30 µg/mL: male, Wistar, read-out: PPB ± SD (converted)
Protocol: Fresh blood was harvested from male adult Wistar rats that were sacrificed by exsanguination. The blood was allowed to clot for 20 min at room temperature and then centrifuged at 3000 rpm for 10 min (Universal 32, Hettich, Germany). 56 and 44 dissolved in water were added in volume of 10 μL to separate glass tubes containing 1 mL aliquots of rat serum to achieve final concentrations of 3 and 30 μg/mL each. All tests were run in triplicate. After vortexing, the serum samples were incubated in a water bath at 37 °C for 30 min with gentle shaking. Following this incubation period, 100 μL of serum samples from each tube were transferred to Eppendorf tubes and frozen at −80 °C for analysis. The remaining serum was transferred into Centrifree ultrafiltration devices with Ultracel regenerated cellulose membrane (Merck, Darmstadt, Germany) and centrifuged at 1000g for 15 min (EBA III centrifuge, Hettich, Germany). The collected ultrafiltrates were frozen (−80 °C) for further analysis.

panel of 45 off-targets = conditions: highest off-target affinity, estimated from screening data
β1 = molecular target: T1, β1 (Homo sapiens, UniProt P08588); test: Off-target binding screen; conditions: 1000 nM, read-out: % Inhibition of Control Specific Binding
T1 construct: Eurofins Pharma Discovery Services (contract screen)
T1 sequence (P08588 whole entry): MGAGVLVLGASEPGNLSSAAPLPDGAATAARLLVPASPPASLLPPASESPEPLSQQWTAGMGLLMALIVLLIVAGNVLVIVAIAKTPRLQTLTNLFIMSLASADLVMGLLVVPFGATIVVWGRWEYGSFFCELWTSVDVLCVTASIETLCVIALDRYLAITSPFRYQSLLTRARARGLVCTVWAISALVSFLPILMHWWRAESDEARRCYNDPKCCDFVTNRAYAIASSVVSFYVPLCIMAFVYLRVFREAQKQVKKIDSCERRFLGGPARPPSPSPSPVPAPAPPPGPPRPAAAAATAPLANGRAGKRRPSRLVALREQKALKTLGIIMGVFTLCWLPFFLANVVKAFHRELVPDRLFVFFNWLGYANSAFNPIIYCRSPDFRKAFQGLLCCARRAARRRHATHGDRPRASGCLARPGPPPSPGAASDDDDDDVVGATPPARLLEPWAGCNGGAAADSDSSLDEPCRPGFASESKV

H1 = molecular target: T2, H1 (Homo sapiens, UniProt P35367); test: Off-target binding screen; conditions: 1000 nM, read-out: % Inhibition of Control Specific Binding
T2 construct: Eurofins Pharma Discovery Services (contract assay)
T2 sequence (P35367 whole entry): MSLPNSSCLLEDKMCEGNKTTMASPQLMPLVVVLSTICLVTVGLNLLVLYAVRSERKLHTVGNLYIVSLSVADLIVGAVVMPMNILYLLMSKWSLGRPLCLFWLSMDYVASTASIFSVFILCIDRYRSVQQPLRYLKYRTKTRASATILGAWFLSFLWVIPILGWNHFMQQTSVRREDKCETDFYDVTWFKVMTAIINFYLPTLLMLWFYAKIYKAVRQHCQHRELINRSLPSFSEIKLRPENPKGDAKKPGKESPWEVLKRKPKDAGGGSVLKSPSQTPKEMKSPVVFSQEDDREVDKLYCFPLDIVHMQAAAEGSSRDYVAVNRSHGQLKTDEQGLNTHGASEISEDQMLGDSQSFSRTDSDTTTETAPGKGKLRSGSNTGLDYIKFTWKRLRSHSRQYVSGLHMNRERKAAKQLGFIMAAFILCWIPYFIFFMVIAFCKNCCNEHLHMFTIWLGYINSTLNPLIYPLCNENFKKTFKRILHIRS

Compound | remaining at 2 h, 50 μM [1] [%] | hepatotoxicity 50% viability of HepG2 cells (HepG2 cells) [µM] | Immobility time (male Wistar rats [2]; 1.25 mg/kg p.o.) [s] | LLR score (male Wistar rats [3]; 0.312 mg/kg p.o.) | LLR score (male Wistar rats [3]; 1.25 mg/kg p.o.) | ability to induce lower lip retraction (LLR), in words (male Wistar rats [3]) | fu ± SD ([4]; C0 3 µg/mL) [%] | fu ± SD ([4]; C0 30 µg/mL) [%] | fraction unbound at 30 min, 3 µg/mL ([4]; C0 3 µg/mL) | fraction unbound at 30 min, 30 µg/mL ([4]; C0 30 µg/mL) | affinity for some of the off-targets (pKi) (panel of 45 off-targets) | inhibition at 1 µM (β1) [%] | inhibition at 1 µM (H1) [%] | Immobility time (male Wistar rats [2]; 0.04 mg/kg p.o.) [s] | LLR score (male Wistar rats [3]; 0.04 mg/kg p.o.)
O=C(c1ccc(F)c(Cl)c1)N1CCC(F)(CNCCOc2cccc3[nH]ccc23)CC1 [Compound 56, (4-(((2-((1H-Indol-4-yl)oxy)ethyl)amino)methyl)-4-fluoropiperidin-1-yl)(3-chloro-4-fluorophenyl)methanone] | 87.4 | >50 | 67.63 ± 7.83 | 10 ± 0 | 10 ± 0 | elicited a full LLR | 1.1 ± 0.1 | 1.9 ± 0.1 | 0.011 | 0.019 | ~8 |  |  |  | 
O=C(c1ccc(F)c(Cl)c1)N1CCC(F)(CNCCOc2ccccc2)CC1 [Compound 3] | 59.2 | >50 |  |  |  |  |  |  |  |  |  | -8 | -9 |  | 
CNc1ccccc1OCCNCC1(F)CCN(C(=O)c2ccc(F)c(Cl)c2)CC1 [Compound 44, (3-Chloro-4-fluorophenyl)(4-fluoro-4-(((2-(2-(methylamino)phenoxy)ethyl)amino)methyl)piperidin-1-yl)methanone] |  |  |  |  |  | did not induce any significant LLR | 1.6 ± 0.1 | 1.8 ± 0.1 | 0.016 | 0.018 |  | -5 | -5 | 199.50 ± 12.35 | 0
